Test system: H2405 cells
Test: H2405 cell proliferation assay (2), resazurin, 384-well
Format: cell-based
Settings: Homo sapiens, NCI-H2405, inhibition of cell proliferation, 67-72 h
Method: H2405 Cell Proliferation Assay (2)
H2405 cells (catalog #CRL-5994) are obtained from the American Type Culture Collect (ATTC, Manassas, VA). Briefly, cells were grown in RPMI 1640 supplemented with 5% characterized fetal bovine serum (Invitrogen, Carlsbad, CA) and 1% Penicillin/Streptomycin/L-Glutamine at 37° C., 5% CO2, and 95% humidity. Cells are expanded until reaching 70-95% confluency at which point they are sub-cultured or harvested for assay use. A serial dilution of test compound is dispensed into a 384-well black clear bottom plate in triplicate. Seven hundred fifty cells are added per well in 50 μL complete growth medium in the 384-well plate. Plates are incubated for 67-72 h at 37° C., 5% CO2, and 95% humidity. At the end of the incubation, 10 μL of a 440 μM solution of resazurin (Sigma, St. Louis, MO) in PBS is added to each well of the plate and plates are incubated for an additional 5-6 h at 37° C., 5% CO2, and 95% humidity. Plates are read on a Synergy2 or equivalent reader (Biotek, Winooski VT) using an excitation of 540 nm and an emission of 600 nm. Data is analyzed using Prism software (GraphPad, San Diego, CA) to calculate IC50 values

IC50 [nM]	Structure (SMILES)
≤ 100	Cc1ccc(NC(=O)N2CC[C@H](C(F)(F)F)C2)cc1-c1cncc(-c2cc(NC(=O)C3CC3)ncn2)c1 [Example 195]
≤ 100	Cc1cc(F)c(NC(=O)N2CC[C@H](C(F)(F)F)C2)cc1-c1cncc(-c2cc(NC(=O)C3CC3)ncn2)c1 [Example 216]
